The record followed here is patent US7223793B2, “Phenolic acid derivatives and composition for preventing or treating blood lipid level-related diseases comprising the same” (Bionutrigen Co., Ltd., priority 2001, dated 2007).

The test system of one test is Sprague-Dawley rats. Description: Effect on blood lipid level in rats fed high-cholesterol diet (Experimental Example 1). Type of test: in vivo, rat. To be noted: rats on 1% cholesterol diet, 5 weeks; for Atherogenic index (AI): (total cholesterol − HDL cholesterol)/HDL cholesterol; for HDL-cholesterol/total cholesterol / HDL-cholesterol / Total cholesterol / Triglyceride: plasma, 0.02% lovastatin or 0.046% BN30028 in diet; for HDL-cholesterol / Total cholesterol / Triglyceride: average ± standard deviation. From the text: 30 of 4-week-old male white Sprague-Dawley rats (Bio Genomics Inc., Korea), each weighing about […], were divided into three groups by a randomized block design. The rats of the three groups were fed with three different high-cholesterol diets, i.e., AIN-76 laboratory animal diets (TEKLAD premier Co., Madison, Wis., U.S.A.) containing 1% cholesterol (Control group), 1% cholesterol plus 0.02% lovastatin (Choongwae Pharma. Corp., Korea) and 1% cholesterol plus 0.046% BN30028, respectively, as shown in Table I.
The rats were allowed free access to the specified diets and water for 5 weeks and the ingestion amounts were recorded daily. The rats were weighed every 5 days, and then the record was analyzed.
Blood samples were taken from vena hypogastrica of the rats of the three dietary groups raised in Step 1 and centrifuged to separate plasma. The total cholesterol level was measured by using a diagnosis kit purchased from Sigma (USA), Cat. No.: C0534, applying the method of Allain et al. (Allain et al., Clin. Chem., 20, 470-475 (1974)). The HDL fraction was separated by using a kit purchased from Sigma, Cat. No.: 352-1 applying the heparin-manganese precipitation method (Waenic R. G. and Albers J. J., J Lipid Res., 19, 65-76 (1978)) and the HDL-cholesterol level was measured by using a kit purchased from Sigma, Cat. No.: C9908. The triglyceride level was measured using a kit purchased from Sigma, Cat. No.: 336-10) applying the lipase-glycerol phosphate oxidase method (McGowan, M. W. et al., Clin. Chem., 29, 538-542(1983)). All the data are expressed by average±standard deviation.

The next test has as its system ACAT. Kind of test: ACAT activity in liver microsomes of treated rabbits (Experimental Example 4). In kind it is in vivo, rabbit. Particulars: liver microsomes of rabbits fed 8 weeks; for ACAT activity: lovastatin 1 mg/kg or BN30028 0.05 wt %, average ± standard deviation; for ACAT activity inhibition: relative to control group. Here is the method: The rabbits raised as described in step 1 of the Experimental Example 2 were sacrificed by decapitation and the livers were removed from the rabbits. 1 g of the liver tissue taken from each rabbit was homogenized in 5 ml of homogenization medium (0.1 M KH2PO4, pH 7.4, 0.1 mM EDTA and 10 mM β-mercaptoethanol). The homogenate was centrifuged at 3,000×g for 10 minutes at 4° C. and the supernatant thus obtained was centrifuged at 15,000×g for 15 minutes at 4° C. to obtain a supernatant. The resulting supernatant was put into an ultracentrifuge tube (Beckman) and centrifuged at 100,000×g for 1 hour at 4° C. to obtain microsomal pellets, which were then suspended in 3 ml of the homogenization medium and centrifuged at 100,000×g for 1 hour at 4° C. The pellets thus obtained were suspended in 1 ml of the homogenization medium. The protein concentration of the resulting suspension was determined by Lowry's method and then adjusted to the range of 4 to 8 mg/ml. The resulting suspension was stored in a deep freezer (Biofreezer, Forma Scientific Inc.).
6.67 μl, of 1 mg/ml cholesterol solution in acetone was mixed with 6 μl of 10% Triton WR-1339 (Sigma Co.) in acetone. Acetone was removed from the mixture by evaporation under a nitrogen flow. To the resulting mixture, distilled water was added to adjust the concentration of cholesterol to 30 mg/ml.
To 10 μl of the resulting aqueous cholesterol solution, 10 μl of 1 M KH2PO4 (pH 7.4), 5 μl of 0.6 mM bovine serum albumin (BSA), 10 μl of the microsome solution obtained in Step 1 and 55 μl of distilled water (total 90 μl) were added. The mixture was pre-incubated in a water bath at 37° C. for 30 minutes.
10 μl of (1-^14C) oleyl-CoA solution (0.05 μCi, final concentration: 10 μM) was added to the pre-incubated mixture and the resulting mixture was incubated in a water bath at 37° C. for 30 minutes. 500 μl of isopropanol:heptane mixture (4:1 (v/v)), 300 μl of heptane and 200 μl of 0.1 M KH2PO4 (pH 7.4). were added to the mixture. The mixture was mixed vigorously using a vortex mixer and then allowed to stand at room temperature for 2 minutes.
200 μl of the resulting supernatant was put in a scintillation bottle and 4 ml of scintillation fluid (Lumac) was added thereto. The mixture was assayed for radioactivity with 1450 Microbeta liquid scintillation counter (Wallacoy, Finland). ACAT activity was calculated as picomoles of cholesteryl oleate synthesized per minute per mg protein (pmoles/min/mg protein). All the data are expressed by average±standard deviation(p<0.05).
In general terms: Microsomes from liver hold many membrane-bound enzymes, among them those of drug oxidation.

Test [1] relates to New Zealand White rabbits. Kind of test: Abnormal fat-containing cells in liver of cholesterol-fed rabbits (Experimental Example 3). Particulars: 1% cholesterol diet, 8 weeks; for Microscopic observation of liver cells (fatty liver): FIGS. 2a-2c; for Grade of proportion of abnormal fat-containing cells in the liver lobules around the central vein: grades 1+(0-25%), 2+(26-50%), 3+(51-75), 4+(76-100%), lovastatin 1 mg/kg or BN30028 0.05 wt %. In kind it is in vivo, rabbit. On the procedure:
Thereafter, a piece of each organ was fixed in 10% neutral formalin for at least 24 hours. The fixed organ piece was washed sufficiently with tap water, dehydrated stepwise with 70%, 80%, 90% and 100% ethanol and, then, embedded in a paraffin by employing SHANDON, Histocentre 2, USA. The embedded organ piece was sectioned in a thickness of 4 μm with a microtome (LEICA, RM2045, Germany) and stained with H & E (hematoxylin and eosin). The stained organ specimen was made transparent with xylene, mounted with permount, and then observed under a microscope.
In order to quantitatively evaluate the effects of feeding a high cholesterol diet with test substances on liver tissues, the liver specimens prepared in step 3 of the Experimental Example 3 were observed under a microscope with referring to the procedure described by Fogt F. et al. (Fogt F. and Nanji A., Toxicology and Applied Pharmacology, 136, 87-93, 1996) and the procedure described by Keegan et al. (Keegan A., et al., Journal of Hepatology 23: 591-600, 1995). The specimens were classified into for grades: 1+(0-25%), 2+(26-50%), 3+(51-75) and 4+(76-100%) according to the proportion of abnormal fat-containing cells in the liver lobules around the central vein. The significant differences between the test groups were tested by student t-test using Microsoft excel (version 7.0) program

On to `CC[C@H](C)C(=O)O[C@H]1C[C@@H](C)C=C2C=C[C@H](C)[C@H](CC[C@@H]3C[C@@H](O)CC(=O)O3)[C@H]21` [Lovastatin, reference compound], for which, in the test with Sprague-Dawley rats, the “Atherogenic index (AI)” value is 2.3 ± 0.2, the HDL-cholesterol/total cholesterol was 30.2 ± 0.5%, the HDL-cholesterol is recorded as 23.4 ± 0.4 mg/dL and the Total cholesterol was found to be 77.4 ± 1.8 mg/dL. In the test with Sprague-Dawley rats, the Triglyceride is reported as 69.0 ± 4.7 mg/dL, the “Increase of triglyceride as compared to the control group” value was found to be 25% and the “Reduction of total plasma cholesterol level as compared to the control group” value amounted to 6%. Further, in the test with ACAT, the ACAT activity stood at 96.2 ± 21.3 pmol/minute/mg protein and the ACAT activity inhibition turned out to be 23.8%. Moreover, in test [1], the “Microscopic observation of liver cells (fatty liver)” value is recorded as “many cells containing excessive fat were observed around the central vein” and the “Grade of proportion of abnormal fat-containing cells in the liver lobules around the central vein” value stood at 3.97 ± 0.15.
For `COC(=O)C(Cc1ccccc1)NC(=O)CCc1ccc(O)c(O)c1` (centres unmarked) [BN30028, 2-[3-(3,4-dihydroxyphenyl)propionylamino]-3-phenyl propionic acid methyl ester], in the test with Sprague-Dawley rats, the “Atherogenic index (AI)” value is 1.84 ± 0.2, the HDL-cholesterol/total cholesterol was determined as 35.1 ± 0.6%, the HDL-cholesterol came out at 25.6 ± 0.6 mg/dL and the Total cholesterol is recorded as 72.8 ± 3.7 mg/dL. In the test with Sprague-Dawley rats, the Triglyceride is recorded as 47.6 ± 1.6 mg/dL, the “Reduction of total plasma cholesterol level as compared to the control group” value stood at 12% and the “Reduction of triglyceride as compared to the control group” value is reported as 15%. In the test with ACAT, this compound gave an ACAT activity of 93.9 ± 21.5 pmol/minute/mg protein and an ACAT activity inhibition of 26.2%. In test [1], the “Microscopic observation of liver cells (fatty liver)” value was “almost all liver cells of the rabbits administered with BN30028 are of a normal shape” and the “Grade of proportion of abnormal fat-containing cells in the liver lobules around the central vein” value stood at 3.57 ± 0.35. Moreover, the “Proportion of fat-modified cells compared to control” value in test [1] (p<0.05) is reported as “significantly reduced”.
